The test system of assay [1] is Escherichia coli. Kind of assay: Covalent binding to Escherichia coli pBR322 DNA adenine-adenine site assessed as inhibition of Hind3-mediated restriction digestion at 1250 uM by restriction endonuclease analysis.
In assay [2] the test system is Escherichia coli. Kind of assay: Covalent binding to Escherichia coli pBR322 DNA Guanine-guanine site assessed as inhibition of BamH1-mediated restriction digestion at 1250 uM by restriction endonuclease analysis.
Assay [3] concerns Bacillus subtilis. Kind of assay: Antibacterial activity against Bacillus subtilis […] after 24 hr by disk diffusion method. The class given is functional, organism-based.
Assay [4] relates to Escherichia coli. Kind of assay: Covalent binding to Escherichia coli pBR322 DNA assessed as disappearance of form 2 DNA at high concentration after 24 hr by agarose gel electrophoresis.
Assay [5] has as its system Enterococcus faecalis. Kind of assay: Antibacterial activity against Enterococcus faecalis […] after 24 hr by disk diffusion method. It counts as functional, organism-based. (In general: A growth-free zone around the sample is the usual read-out of agar diffusion tests.)
In assay [6] the test system is Staphylococcus aureus. Kind of assay: Antibacterial activity against Staphylococcus aureus ATCC 25923 after 24 hr by disk diffusion method. It counts as functional, organism-based.
Assay [7] deals with Escherichia coli. Kind of assay: Binding affinity to Escherichia coli pBR322 DNA assessed as appearance of DNA fragments at high concentration after 24 hr by agarose gel electrophoresis.
Assay [8] deals with Escherichia coli. Kind of assay: Antibacterial activity against Escherichia coli ATCC 25922 after 24 hr by disk diffusion method. It counts as functional, organism-based.
In assay [9] the test system is Candida tropicalis. Kind of assay: Antifungal activity against Candida tropicalis ATCC 13803 after 72 hr by disk diffusion method. The class given is functional, organism-based.
Assay [10] has as its system Candida albicans. Nature of the assay: Antifungal activity against Candida albicans ATCC 10231 after 72 hr by disk diffusion method. It counts as functional, organism-based.
Assay [11] deals with Bacillus cereus. Kind of assay: Antibacterial activity against Bacillus cereus NRLL B-3008 after 24 hr by disk diffusion method. The class given is functional, organism-based.
Assay [12] deals with Pseudomonas aeruginosa. Kind of assay: Antibacterial activity against Pseudomonas aeruginosa ATCC 27853 after 24 hr by disk diffusion method. The class given is functional, organism-based.
Assay [13] concerns Escherichia coli. Kind of assay: Antibacterial activity against Escherichia coli ATCC 35218 after 24 hr by disk diffusion method. It counts as functional, organism-based.
Assay [14] relates to Proteus vulgaris. Kind of assay: Antibacterial activity against Proteus vulgaris ATCC 8427 after 24 hr by disk diffusion method. It counts as functional, organism-based.
For assay [15], the system named is Escherichia coli. Kind of assay: Binding affinity to Escherichia coli pBR322 DNA assessed as decrease in mobility of form 1 DNA at high concentration after 24 hr by agarose gel electrophoresis.
The subject of assay [16] is Escherichia coli. Kind of assay: Binding affinity to Escherichia coli pBR322 DNA assessed as change in mobility of form 2 DNA at low concentration after 24 hr by agarose gel electrophoresis.
The subject of assay [17] is Escherichia coli. Kind of assay: Covalent binding to Escherichia coli pBR322 DNA assessed as appearance of small DNA fragments at high concentration after 24 hr by agarose gel electrophoresis.
For assay [18], the system named is Escherichia coli. Kind of assay: Covalent binding to Escherichia coli pBR322 DNA assessed as increase in intensity of form 1 DNA at high concentration after 24 hr by agarose gel electrophoresis.
In assay [19] the test system is Escherichia coli. Nature of the assay: Binding affinity to Escherichia coli pBR322 DNA assessed as change in mobility of form 1 DNA at low concentration after 24 hr by agarose gel electrophoresis.

Active and inactive are the calls of the source. No cut-off for these calls is given here.

As for `CCOC(=O)Cn1cnc2c(Sc3nnnn3C)ncnc21`, the result in assay [1], in assay [2], in assay [4] and in [7] was Active. The result in assay [3], in assay [5], in [6], in [8], in assay [9] and in assay [10] was inactive. The outcome in [11], in [12], in assay [13] and in assay [14] was inactive.
Regarding `CC(C)n1cnc2c(Sc3nnnn3C)ncnc21`, the result in assay [1], in assay [2], in assay [7] and in [15] was Active. Besides, the result in [3], in [5], in [6], in assay [8], in [9] and in assay [10] was inactive. Further, the result in assay [11], in [12], in [13] and in assay [14] was inactive.
On to `c1nc(Nc2nnn[nH]2)c2ncn(CC3CCC3)c2n1`, for which the outcome in assay [1], in assay [7] and in [15] was Active. Also, the result in assay [2], in assay [3], in assay [5], in assay [6], in assay [8] and in assay [9] was inactive. The outcome in assay [10], in assay [11], in assay [12], in assay [13] and in [14] was inactive.
As to `CCn1cnc2c(Nc3nnn[nH]3)ncnc21`, the result in assay [1], in [17] and in assay [18] was Active. The outcome in assay [2], in [16], in assay [3], in assay [5], in [6] and in [8] was inactive. Further, the result in assay [9], in assay [10], in assay [19], in assay [11], in [12] and in assay [13] was inactive. The outcome in assay [14] was inactive.
For the compound `Cn1cnc2c(Nc3nnn[nH]3)ncnc21`, the outcome in assay [1], in [17] and in [18] was Active. Besides, the result in [2], in [16], in [3], in assay [5], in assay [6] and in assay [8] was inactive. The result in assay [9], in assay [10], in assay [19], in assay [11], in assay [12] and in [13] was inactive. Besides, the outcome in [14] was inactive.
On to `c1ccc(Cn2cnc3c(Nc4nnn[nH]4)ncnc32)cc1`, for which the result in [1] and in [15] was Active. For the same compound, the result in [2], in assay [3], in assay [5], in assay [6], in [8] and in assay [9] was inactive. Besides, the result in [10], in [11], in assay [12], in assay [13] and in assay [14] was inactive.
`c1nc(Nc2nnn[nH]2)c2nc[nH]c2n1`: the result in assay [1], in assay [17] and in assay [18] was Active. Also, the outcome in [2], in [16], in [3], in assay [5], in assay [6] and in assay [8] was inactive. Moreover, the outcome in [9], in [10], in assay [19], in assay [11], in assay [12] and in assay [13] was inactive. Besides, the result in assay [14] was inactive.
Take `Cn1nnnc1Sc1ncnc2[nH]cnc12`: the result in assay [1], in assay [2] and in assay [15] was Active. In addition, the outcome in assay [3], in assay [5], in assay [6], in [8], in assay [9] and in assay [10] was inactive. Also, the outcome in assay [11], in assay [12], in [13] and in assay [14] was inactive.
Consider `CCCCCCn1cnc2c(Nc3nnn[nH]3)ncnc21`, for which the outcome in assay [1], in [17] and in [18] was Active. Further, the result in assay [2], in assay [16], in assay [3], in [5], in assay [6] and in [8] was inactive. In addition, the result in assay [9], in assay [10], in assay [19], in [11], in assay [12] and in assay [13] was inactive. For the same compound, the outcome in assay [14] was inactive.
As for `CCOC(=O)Cn1cnc2c(Nc3nnn[nH]3)ncnc21`, the result in assay [1], in assay [7] and in [15] was Active. The outcome in [2], in assay [3], in assay [5], in assay [6], in [8] and in assay [9] was inactive. The result in assay [10], in assay [11], in assay [12], in assay [13] and in assay [14] was inactive.
Regarding `CCCn1cnc2c(Sc3nnnn3C)ncnc21`, the result in assay [1], in [2], in assay [7] and in assay [15] was Active. The result in assay [3], in assay [5], in [6], in assay [8], in [9] and in assay [10] was inactive. Besides, the result in assay [11], in [12], in assay [13] and in [14] was inactive.
Turning to `CC(C)n1cnc2c(Nc3nnn[nH]3)ncnc21`, the outcome in [1], in assay [17] and in assay [18] was Active. The result in assay [2], in assay [16], in assay [3], in assay [5], in [6] and in [8] was inactive. Besides, the outcome in assay [9], in [10], in [19], in assay [11], in assay [12] and in assay [13] was inactive. Further, in [14], the result was inactive.
